Measurements reported in patent US20130040944A1, “MGLUR4 ALLOSTERIC POTENTIATORS, COMPOSITIONS, AND METHODS OF TREATING NEUROLOGICAL DYSFUNCTION” (VANDERBILT UNIVERSITY, priority 2009, published 2013).

Target: human mGluR4 (Homo sapiens, UniProt Q14833)
Test: potentiation of human mGluR4 in transfected CHO cells, Ca2+-sensitive dye fluorescence, EC20 agonist
Details: for Emax: CHO, read-out: % Glu Max
[1] = EC50 (nM), potentiation of EC20 agonist response, Table I
[2] = hEC50, human mGluR4 potentiation, unit inferred

Chain of human mGluR4 (Q14833 33-912): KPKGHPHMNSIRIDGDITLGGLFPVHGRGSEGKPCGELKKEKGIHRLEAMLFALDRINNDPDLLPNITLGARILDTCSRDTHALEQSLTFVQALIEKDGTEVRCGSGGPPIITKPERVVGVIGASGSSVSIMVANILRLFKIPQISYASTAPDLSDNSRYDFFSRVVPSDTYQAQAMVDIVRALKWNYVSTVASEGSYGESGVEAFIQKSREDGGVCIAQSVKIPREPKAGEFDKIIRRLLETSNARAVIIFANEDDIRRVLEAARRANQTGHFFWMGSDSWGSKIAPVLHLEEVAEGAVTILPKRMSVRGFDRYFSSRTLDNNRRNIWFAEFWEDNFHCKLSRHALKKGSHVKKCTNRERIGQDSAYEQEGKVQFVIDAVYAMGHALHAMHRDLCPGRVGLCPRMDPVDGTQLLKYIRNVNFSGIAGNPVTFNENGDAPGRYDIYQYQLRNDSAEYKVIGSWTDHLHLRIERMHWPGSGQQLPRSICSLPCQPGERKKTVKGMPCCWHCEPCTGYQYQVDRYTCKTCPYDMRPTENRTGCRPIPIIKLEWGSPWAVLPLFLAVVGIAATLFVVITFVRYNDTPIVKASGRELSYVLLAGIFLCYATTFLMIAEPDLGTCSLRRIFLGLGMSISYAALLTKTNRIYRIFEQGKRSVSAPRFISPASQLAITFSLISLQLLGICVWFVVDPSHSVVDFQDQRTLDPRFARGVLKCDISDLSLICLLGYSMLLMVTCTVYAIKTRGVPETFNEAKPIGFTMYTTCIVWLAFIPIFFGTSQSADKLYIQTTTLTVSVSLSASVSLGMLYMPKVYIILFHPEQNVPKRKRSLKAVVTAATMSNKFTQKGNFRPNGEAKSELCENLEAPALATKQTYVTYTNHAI

| SMILES | Emax | EC50 [1] | EC50 [2] |
| --- | --- | --- | --- |
| O=C(Nc1ccn(S(=O)(=O)Cc2ccccc2)c1)c1ccco1 [Example 1, N-(1-(benzylsulfonyl)-1H-pyrrol-3-yl)furan-2-carboxamide] | 227% | 6410 nM | – |
| O=C(Nc1ccn(S(=O)(=O)Cc2ccccc2)c1)c1ccccn1 [Example 2, N-(1-(benzylsulfonyl)-1H-pyrrol-3-yl)picolinamide] | 275% | 562 nM | – |
| COc1cccc(C(=O)Nc2ccn(S(=O)(=O)Cc3ccccc3)c2)c1 [Example 3, N-(1-(benzylsulfonyl)-1H-pyrrol-3-yl)-3-methoxybenzamide] | 39% | > 20000 nM | – |
| O=C(Nc1ccn(S(=O)(=O)c2ccccc2)c1)c1ccccn1 [Example 4, N-(1-(phenylsulfonyl)-1H-pyrrol-3-yl)picolinamide] | 59% | 280 nM | – |
| O=C(Nc1ccn(S(=O)(=O)c2ccccc2)c1)c1ccccc1 [Example 5, N-(1-(phenylsulfonyl)-1H-pyrrol-3-yl)benzamide] | 93% | 8170 nM | – |
| O=C(Nc1ccn(S(=O)(=O)Cc2ccccc2)c1)c1ccccc1 [Example 6, N-(1-(benzylsulfonyl)-1H-pyrrol-3-yl)benzamide] | 55% | 951 nM | – |
| O=C(Nc1ccn(S(=O)(=O)c2ccccc2F)c1)c1ccccn1 [Example 8] | 116% | 174 nM | – |
| Cc1ccccc1S(=O)(=O)n1ccc(NC(=O)c2ccccn2)c1 [Example 9] | 67% | 198 nM | – |
| O=C(Nc1ccn(S(=O)(=O)c2ccccc2C(F)(F)F)c1)c1ccccn1 [Example 10] | 101% | 526 nM | – |
| O=C(Nc1ccn(S(=O)(=O)c2ccccc2Cl)c1)c1ccccn1 [Example 11] | 91% | 222 nM | – |
| N#Cc1cccc(CS(=O)(=O)n2ccc(NC(=O)c3ccccn3)c2)c1 [Example 26] | 141% | 5080 nM | – |
| O=C(Nc1ccn(S(=O)(=O)Cc2ccc(Cl)c(Cl)c2)c1)c1ccccn1 [Example 34] | 159% | – | – |
| O=C(Nc1ccn(S(=O)(=O)c2ccc3ccccc3c2)c1)c1ccccn1 [Example 36] | 58% | > 10000 nM | – |
| O=C(Nc1ccn(S(=O)(=O)Cc2ccccc2)c1)c1cc(F)ccn1 [Example 39, N-(1-(benzylsulfonyl)-1H-pyrrol-3-yl)-4-fluoropicolinamide] | 35% | 369 nM | – |
| O=C(Nc1ccn(S(=O)(=O)CCc2ccccc2)c1)c1ccccn1 [Example 40, N-(1-(phenethylsulfonyl)-1H-pyrrol-3-yl)picolinamide] | 152% | 483 nM | – |
| O=C(Nc1ccn(S(=O)(=O)Cc2ccccc2)c1)c1cccc(F)n1 [Example 41, N-(1-(benzylsulfonyl)-1H-pyrrol-3-yl)-6-fluoropicolinamide] | 76% | 574 nM | – |
| O=C(Nc1ccn(S(=O)(=O)Cc2ccccc2)c1)c1cscn1 [Example 42, N-(1-(benzylsulfonyl)-1H-pyrrol-3-yl)thiazole-4-carboxamide] | 129% | 4620 nM | – |
| Cc1cccc(C(=O)Nc2ccn(S(=O)(=O)Cc3ccccc3)c2)n1 [Example 43, N-(1-(benzylsulfonyl)-1H-pyrrol-3-yl)-6-methylpicolinamide] | 90% | 9540 nM | – |
| O=C(Nc1ccn(S(=O)(=O)Cc2ccccc2)c1)c1nccs1 [Example 44, N-(1-(benzylsulfonyl)-1H-pyrrol-3-yl)thiazole-2-carboxamide] | 175% | 4380 nM | – |

| SMILES | Emax | EC50 [1] | EC50 [2] |
| --- | --- | --- | --- |
| O=C(Nc1ccn(S(=O)(=O)Cc2ccccc2)c1)c1ccncn1 [Example 45, N-(1-(benzylsulfonyl)-1H-pyrrol-3-yl)pyrimidine-4-carboxamide] | 57% | > 20000 nM | – |
| Cc1ccc(CS(=O)(=O)n2ccc(NC(=O)c3ccccn3)c2)cc1 [Example 47, N-(1-((4-methylbenzyl)sulfonyl)-1H-pyrrol-3-yl)picolinamide] | – | – | 280 nM |
| O=C(Nc1ccn(S(=O)(=O)c2ccccc2)c1)c1nccs1 [Example 50, N-(1-(phenylsulfonyl)-1H-pyrrol-3-yl)thiazole-2-carboxamide] | – | – | 2680 nM |
| O=C(Nc1ccn(S(=O)(=O)Cc2ccccc2Cl)c1)c1nccs1 [Example 52, N-(1-((2-chlorobenzyl)sulfonyl)-1H-pyrrol-3-yl)thiazole-2-carboxamide] | – | – | 767 nM |
| Cc1cccc(S(=O)(=O)n2ccc(NC(=O)c3nccs3)c2)c1 [Example 53, N-(1-(m-tolylsulfonyl)-1H-pyrrol-3-yl)thiazole-2-carboxamide] | – | – | 767 nM |
| CC(=O)Oc1ccccc1C(=O)Nc1ccn(S(=O)(=O)c2cccc(C)c2)c1 [Example 54, 2-((1-(m-tolylsulfonyl)-1H-pyrrol-3-yl)carbamoyl)phenyl acetate] | – | – | 1720 nM |
| O=C(Nc1ccn(S(=O)(=O)Cc2ccc(F)cc2F)c1)c1nccs1 [Example 55, N-(1-((2,4-difluorobenzyl)sulfonyl)-1H-pyrrol-3-yl)thiazole-2-carboxamide] | – | – | 1910 nM |
| O=C(Nc1ccn(S(=O)(=O)Cc2ccc(F)cc2F)c1)c1ccco1 [Example 56, N-(1-((2,4-difluorobenzyl)sulfonyl)-1H-pyrrol-3-yl)furan-2-carboxamide] | – | – | 3690 nM |
| O=C(Nc1ccn(S(=O)(=O)Cc2ccc(F)cc2Cl)c1)c1ccccn1 [Example 57, N-(1-((2-chloro-4-fluorobenzyl)sulfonyl)-1H-pyrrol-3-yl)picolinamide] | – | – | 125 nM |
| CC(C)(C)c1ccc(S(=O)(=O)n2ccc(NC(=O)c3ccccn3)c2)cc1 [Example 58, N-(1-((4-(tert-butyl)phenyl)sulfonyl)-1H-pyrrol-3-yl)picolinamide] | – | – | 16800 nM |
| O=C(Nc1ccn(S(=O)(=O)c2ccc(F)c(F)c2)c1)c1ccccn1 [Example 59, N-(1-((3,4-difluorophenyl)sulfonyl)-1H-pyrrol-3-yl)picolinamide] | – | – | 379 nM |
| O=C(Nc1ccn(S(=O)(=O)Cc2ccc(F)cc2Cl)c1)c1nccs1 [Example 60, N-(1-((2-chloro-4-fluorobenzyl)sulfonyl)-1H-pyrrol-3-yl)thiazole-2-carboxamide] | – | – | 132 nM |
| O=C(Nc1ccn(S(=O)(=O)Cc2ccc(F)cc2Cl)c1)c1ccco1 [Example 61, N-(1-((2-chloro-4-fluorobenzyl)sulfonyl)-1H-pyrrol-3-yl)furan-2-carboxamide] | – | – | 320 nM |
| O=C(Nc1ccn(S(=O)(=O)Cc2ccccc2Cl)c1)c1cscn1 [Example 62, N-(1-((2-chlorobenzyl)sulfonyl)-1H-pyrrol-3-yl)thiazole-4-carboxamide] | – | – | 492 nM |
| O=C(Nc1ccn(S(=O)(=O)Cc2ccccc2)c1)c1nccs1 [Example 63, N-(1-(benzylsulfonyl)-1H-pyrrol-3-yl)thiazole-2-carboxamide] | – | – | 2760 nM |
| COc1ccc(S(=O)(=O)n2ccc(NC(=O)c3ccccn3)c2)cc1Cl [Example 64, N-(1-((3-chloro-4-methoxyphenyl)sulfonyl)-1H-pyrrol-3-yl)picolinamide] | – | – | 664 nM |
| O=C(Nc1ccn(S(=O)(=O)Cc2ccccc2Cl)c1)c1ncccc1F [Example 65, N-(1-((2-chlorobenzyl)sulfonyl)-1H-pyrrol-3-yl)-3-fluoropicolinamide] | – | – | 6970 nM |
| O=C(Nc1ccn(S(=O)(=O)Cc2ccccc2Cl)c1)c1csnn1 [Example 66, N-(1-((2-chlorobenzyl)sulfonyl)-1H-pyrrol-3-yl)-1,2,3-thiadiazole-4-carboxamide] | – | – | 307 nM |
